Data on 2 compounds can be found in patent US20100069502A1, “Assay” (priority 2006, published 2010).

Holding throughout (assay type): cell-based
One test addresses T1, PPM1E (Homo sapiens, UniProt Q8WY54).
T1 construct: The PPM1A1 and PPM1E isoforms were immunoprecipitated in triplicate from untreated or metformin-treated HEK293 cell lysates; endogenous in cells; host or cells: HEK293
T1 sequence (Q8WY54 1-755): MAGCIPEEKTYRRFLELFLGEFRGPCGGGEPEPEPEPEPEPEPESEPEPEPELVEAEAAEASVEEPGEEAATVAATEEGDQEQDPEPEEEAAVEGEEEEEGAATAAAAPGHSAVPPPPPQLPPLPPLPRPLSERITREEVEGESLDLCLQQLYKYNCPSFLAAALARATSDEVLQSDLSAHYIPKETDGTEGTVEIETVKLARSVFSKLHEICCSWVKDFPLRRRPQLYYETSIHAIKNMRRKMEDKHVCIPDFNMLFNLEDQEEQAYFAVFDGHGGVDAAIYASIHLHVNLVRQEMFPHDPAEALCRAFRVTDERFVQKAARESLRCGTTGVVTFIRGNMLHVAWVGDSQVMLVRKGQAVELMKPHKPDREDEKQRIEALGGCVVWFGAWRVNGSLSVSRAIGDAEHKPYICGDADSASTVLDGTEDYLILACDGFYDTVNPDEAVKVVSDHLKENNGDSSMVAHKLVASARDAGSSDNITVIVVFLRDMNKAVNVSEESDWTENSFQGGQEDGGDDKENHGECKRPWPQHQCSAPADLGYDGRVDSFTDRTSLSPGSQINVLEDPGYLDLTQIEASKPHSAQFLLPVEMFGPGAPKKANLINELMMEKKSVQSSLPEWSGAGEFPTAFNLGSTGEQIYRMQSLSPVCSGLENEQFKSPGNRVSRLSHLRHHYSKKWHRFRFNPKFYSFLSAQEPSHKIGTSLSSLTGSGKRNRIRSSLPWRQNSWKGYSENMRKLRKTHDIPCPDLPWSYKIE
The test is described as follows: Activity of PPM phosphatase immunoprecipitated from HEK293 cell lysates, casein substrate. Particulars: HEK293 cells, 2 mM metformin for 10 minutes prior to lysis. The procedure:
PPM1E is immunopelleted with antibodies raised the amino acid sequence […] and the phosphatase activity in the immunopellet is measured in a protein phosphatase assay using 32P-labelled casein as substrate in the presence of 10 mM Mg2+ or Mn2+ ions and 5 μM okadaic acid.
(§1) PPM phosphatase activity in HEK293 cell lysates either untreated or treated with 10 mM phenformin for 1 hour. Individual isoforms were immunoprecipitated from control or phenformin-treated cell lysates and activity measured using ^32P labelled casein as substrate in the presence of 10 mM MgAc and […] acid. Data are mean activities for assays performed in triplicate.
To determine with greater certainty which PPM phosphatases are affected by biguanide, the PPM phosphatase activity associated with each of the PPM enzymes was assessed. […] No change could be detected in the PPM phosphatases associated with PPM1A1, PPM1B1, PPM1B2, PPM1D, PPM1G, ILKAP, Nerpp, PDPC1 or PDPC2. […] Following immunoprecipitation and immunoblotting of the PPM1E immunoprecipitate from untreated HEK293 cells, no signal could be detected using an antibody directed against PPM1E.
HEK293 cells were treated with 2 mM metformin for 10 minutes prior to lysis. […] Control immunoprecipitations were preformed in triplicate for each lysate using pre-immune antibody and subtracted from the activity calculated for the PPM phosphatase immunoprecipitations. […]

Test [1] has as its system PPM phosphatase. The test is described as follows: Mg2+ dependent, okadaic acid resistant casein phosphatase (PPM phosphatase) activity in HEK293 cell lysates. Particulars: HEK293 cells, 2 mM metformin. As for the experimental part: (§2) A PPM phosphatase activity in treated and untreated HEK293 cell lysates using casein as substrate in the presence of 10 mM MgAc and 5 μM okadaic acid. Data are mean±SEM with five independent samples measured in duplicate. (p<0.001). B PPM phosphatase activity in treated and untreated HeLa cell lysates using casein as substrate in the presence of 10 mM MgAc and 5 μM okadaic acid. Data are mean±SEM with four independent samples measured in duplicate. (p<0.001).
(§3) To study the effects of biguanide on the activity of protein phosphatases, HEK293 cell lysates either untreated or treated with biguanide (10 mM phenformin in this example—as described above) were either immunoblotted or assayed for specific protein phosphatase activity by using combinations of phosphatase inhibitors and activators, as well as different phosphorylated substrates.
(§4) The activity of PP2C (PPM1) and related members of the PPM family was assessed using ^32P-labelled casein as substrate with 5 μM okadaic acid included in the reaction to inhibit PP2A, and 10 mM magnesium acetate, which is known to be required for the activity of PP2C (Ingebritsen and Cohen, 1983 Science vol 221, pp 331-338; Ingebritsen et al., 1983 Eur J Biochem vol 132, pp 263-274).

The test system of test [2] is PPM phosphatase. The test is described as follows: Mg2+ dependent, okadaic acid resistant casein phosphatase (PPM phosphatase) activity in HeLa cell lysates. The following applies: HeLa cells, 2 mM metformin. The procedure: as §2, §4
To test whether phenformin is able to have similar effects in this cell line, PPM phosphatase activity in HeLa cells either untreated or treated with 10 mM phenformin was assessed. Again, a ˜20% decrease in PPM phosphatase activity could be observed in cells treated with phenformin (FIG. 2B). In this experiment, the activity of many PP2C isoforms is measured, and the 20% decrease observed may represent a more severe decrease in activity of only one such isoform.

A further test relates to PP5. The test is described as follows: PP5 levels by immunoblotting in HEK293 cell lysates. Particulars: HEK293 cells, 10 mM phenformin, antibody against TPR domains. As for the experimental part:
as §3
Since the activity of PP5 in HEK293 cells is low, the levels of PP5 were assessed by immunoblotting using an antibody against the TPR domains of the protein.
(In general: Immunoblotting shows a protein as a band on a membrane.)

In a further test the target is T2, PPM1F (Homo sapiens, UniProt P49593).
T2 construct: endogenous in cells; host or cells: HEK293
T2 sequence (P49593 1-454): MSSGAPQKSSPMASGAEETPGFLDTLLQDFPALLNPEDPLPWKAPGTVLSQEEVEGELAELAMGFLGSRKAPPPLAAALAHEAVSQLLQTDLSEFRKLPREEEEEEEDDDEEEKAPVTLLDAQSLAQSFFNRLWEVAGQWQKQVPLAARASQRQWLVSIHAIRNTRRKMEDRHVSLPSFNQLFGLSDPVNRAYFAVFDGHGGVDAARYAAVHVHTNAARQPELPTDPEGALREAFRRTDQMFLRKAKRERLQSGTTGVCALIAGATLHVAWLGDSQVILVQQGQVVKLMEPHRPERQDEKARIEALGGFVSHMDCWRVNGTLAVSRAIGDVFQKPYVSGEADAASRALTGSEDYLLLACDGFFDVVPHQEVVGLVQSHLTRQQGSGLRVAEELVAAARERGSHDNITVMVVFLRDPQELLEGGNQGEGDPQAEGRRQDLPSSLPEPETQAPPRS
The test is described as follows: Activity of PPM phosphatase immunoprecipitated from HEK293 cell lysates, casein substrate. The procedure:
PPM1F is immunopelleted with antibodies raised the amino acid sequence […] and the phosphatase activity in the immunopellet is measured in a protein phosphatase assay using 32P-labelled casein as substrate in the presence of 10 mM Mg2+ or Mn2+ ions and 5 μM okadaic acid.
as §1
To determine with greater certainty which PPM phosphatases are affected by biguanide, the PPM phosphatase activity associated with each of the PPM enzymes was assessed. In this example, the biguanides are metformin and phenformin. […] No change could be detected in the PPM phosphatases associated with PPM1A1, PPM1B1, PPM1B2, PPM1D, PPM1G, ILKAP, Nerpp, PDPC1 or PDPC2. […] Following immunoprecipitation and immunoblotting of the PPM1E immunoprecipitate from untreated HEK293 cells, no signal could be detected using an antibody directed against PPM1E.

The test system of the next test is PP1. The test is described as follows: PP1 phosphorylase phosphatase activity in HEK293 cell lysates. Particulars: 10 mM phenformin, 32P-labelled phosphorylase a, 4 mM okadaic acid. The procedure: (§5) A Levels of phosphorylation of AMPK at Thr172 in 4 untreated and 4 treated samples. Anti-PP5 TPR domain antibody is used as a loading control. Molecular weights (kDa) are indicated to the left of the panels. B PP1 phosphorylase phosphatase activity in treated and untreated HEK293 cell lysates using phosphorylase a as substrate, in the presence of 4 nM okadaic acid. Data are mean±SEM for four samples measured in triplicate. C PP2A phosphorylase phosphatase activity in treated and untreated HEK293 cell lysates using phosphorylase a as substrate, in the presence of 200 nM I-2. Data are mean±SEM for four samples measured in triplicate. […]
The activity of PP1 in response to phenformin was assessed using ^32P-labelled phosphorylase a as substrate with […] okadaic acid included in the reaction in order to inhibit the activity of PP2A and EGTA (0.1-2 mM) to inhibit metal ion activated protein phosphatases. No change in PP1 phosphorylase phosphatase activity could be detected between unstimulated and 10 mM-phenformin stimulated cell lysates (FIG. 1B).

Another test has as its system PP2A. The test is described as follows: PP2A phosphorylase phosphatase activity in HEK293 cell lysates. Particulars: 10 mM phenformin, 32P labelled phosphorylase a, 200 nM I-2. The procedure: as §5
The activity of PP2A in response to phenformin was also assessed using ^32P labelled phosphorylase a as substrate, but for this assay 200 nM I-2 and EGTA (0.1-2 mM) to inhibit metal ion activated protein phosphatases was included to inhibit PP1. No change in the PP2A phosphorylase phosphatase activity could be detected between unstimulated and 10 mM-phenformin stimulated cell lysates (FIG. 1C).

`CN(C)C(=N)N=C(N)N` [metformin, 1-(diaminomethylidene)-3,3-dimethyl-guanidine]: the “activity of immunoprecipitated PPM1E” value at PPM1E is recorded as “almost completely ablated”; on PPM1E (listed as Metformin) it was “Substantial specific knockdown”. Moreover, the “decrease in PPM phosphatase activity” value in the test with PPM phosphatase [1] and in the test with PPM phosphatase [2] was 20% in each case.

As to `[H]/N=C(/N)N/C(=N/[H])NCCc1ccccc1` [phenformin, phenylethylbiguanide], the “levels of PP5” value with PP5 is listed as “no effect”. In addition, at PPM1F (HEK293 cells treated with phenformin), the “activity of immunoprecipitated PPM1F, % of the levels of untreated cells” value is ~60%. The “decrease in activity of immunoprecipitated PPM1F” value on PPM1F (HEK293 cells, 10 mM phenformin) is recorded as ~40%. Moreover, in the test on PP1, the “PP1 phosphorylase phosphatase activity” value is “no effect”. For the same compound, the “PP2A phosphorylase phosphatase activity” value in the test on PP2A was “no effect”.
